Results: PubChem BioAssay (NCI)
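Protocol summary: plate cells (96-well), add compound at 5 concentrations, incubate 48 h, interpolate endpoints linearly. The concentration for 50% growth inhibition is given as GI50. TGI: total growth inhibition.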

How the values were obtained:
Test in all cases: NCI anticancer screen, dose series, 48 h
SK-OV-3 ovarian = test system: SK-OV-3 ovarian
SF-295 CNS = test system: SF-295 CNS
SK-MEL-28 melanoma = test system: SK-MEL-28 melanoma
HOP-62 NSCLC = test system: HOP-62 NSCLC
NCI-H460 lung = test system: NCI-H460 lung
KM12 colon = test system: KM12 colon
SF-539 CNS = test system: SF-539 CNS
NCI-H226 lung = test system: NCI-H226 lung
A549 NSCLC = test system: A549 NSCLC
EKVX NSCLC = test system: EKVX NSCLC

| Compound | GI50 (SK-OV-3 ovarian) | TGI (SK-OV-3 ovarian) | GI50 (SF-295 CNS) | TGI (SF-295 CNS) | GI50 (SK-MEL-28 melanoma) | TGI (SK-MEL-28 melanoma) | GI50 (HOP-62 NSCLC) | TGI (HOP-62 NSCLC) | GI50 (NCI-H460 lung) | TGI (NCI-H460 lung) | GI50 (KM12 colon) | TGI (KM12 colon) | GI50 (SF-539 CNS) | TGI (SF-539 CNS) | GI50 (NCI-H226 lung) | TGI (NCI-H226 lung) | GI50 (A549 NSCLC) | TGI (A549 NSCLC) | GI50 (EKVX NSCLC) | TGI (EKVX NSCLC) |
| --- | --- | --- | --- | --- | --- | --- | --- | --- | --- | --- | --- | --- | --- | --- | --- | --- | --- | --- | --- | --- |
| O=C1/C(=C\c2ccccn2)c2ccccc2N1c1c(Cl)cccc1Cl | 3.01 µM | 10.2 µM | 1960 nM | 5.72 µM | 1.84 µM | 4.03 µM | 2.07 µM | 5.04 µM | 1880 nM | 3.65 µM | 1690 nM | 3.22 µM | 2440 nM | 6.33 µM | 1700 nM | 3.42 µM | 2.29 µM | 14.6 µM | 3.47 µM | 17.8 µM |
| NC(=O)c1cccc(Nc2nccc(Nc3cccc4[nH]ncc34)n2)c1 | 8.45 µM | > 25 µM | 15400 nM | > 25 µM | 10.1 µM | > 25 µM | 9.28 µM | > 25 µM | 9050 nM | > 25 µM | 9780 nM | > 25 µM | 6240 nM | > 21.7 µM | 5520 nM | > 20.1 µM | > 24 µM | > 25 µM | > 25 µM | > 25 µM |
| CC1(C)C2CC(=O)C1(C)C(OCc1ccccc1)C2 (stereo not given) |  | > 100 µM |  | > 100 µM |  | > 100 µM |  | > 100 µM |  | > 100 µM |  | > 100 µM |  | > 100 µM |  | > 100 µM |  | > 100 µM |  | > 100 µM |
| CC/C(CC(=O)CCC(=O)Nc1ccccc1[N+](=O)[O-])=N/NC(=O)C[n+]1ccccc1 |  | > 100 µM |  | > 100 µM |  | > 100 µM |  | > 100 µM |  | > 100 µM |  | > 100 µM |  | > 100 µM |  | > 100 µM |  | > 100 µM |  | > 100 µM |
| Cc1nc(N2CCC3(CC2)CO[C@@H](C)[C@H]3N)c(CO)nc1Sc1ccnc(N)c1Cl | 0.789 µM | > 100 µM | 26600 nM | > 100 µM | > 100 µM | > 100 µM | 28 µM | > 100 µM | > 100000 nM | > 100 µM | 2210 nM | > 100 µM | 7430 nM | > 100 µM | 2140 nM | > 100 µM | > 100 µM | > 100 µM | 0.449 µM | > 100 µM |
| CCc1cccc(CC)c1NC(=O)C1=C(C)NC(C)=C(C(=O)Nc2c(CC)cccc2CC)C1c1ccc([N+](=O)[O-])cc1 |  | 96.4 µM |  | 38.6 µM |  | 39.9 µM |  | > 100 µM |  | 45 µM |  | 48.8 µM |  | 39.8 µM |  | > 100 µM |  | > 100 µM |  | 78.3 µM |
| COc1ccc(C(=O)c2cc3c(N)c(C(=O)Nc4ccc(C)cc4)sc3nc2C)cc1 | 5.59 µM | 33.1 µM | 2510 nM | 15 µM | 13.6 µM | > 100 µM | 4.43 µM | 31.5 µM | 2990 nM | 14.2 µM | 2440 nM | > 100 µM | 2500 nM | 9.38 µM | 4220 nM | 30.8 µM | 3.96 µM | > 100 µM | 5.59 µM | > 100 µM |
| Cc1ccc(C)c(C2NC(=O)c3ccccc3N2)c1 (stereo not given) |  | > 75.1 µM |  | > 33.1 µM |  | > 100 µM |  | > 87.6 µM |  | 34.5 µM |  | > 70.8 µM |  | 3.07 µM |  | 20.5 µM |  | > 100 µM |  | > 100 µM |
| CN1C(=O)N[C@H]2[C@@H]3NC(=O)c4ccc(Br)n4[C@@H]3C[C@]21O | 1.37 µM | 5.5 µM | 273 nM | 3.21 µM | 0.0317 µM | 0.262 µM | 0.117 µM | 1.09 µM | 40.3 nM | 1.5 µM | 191 nM | 5.47 µM | 82.5 nM | 0.447 µM | 212 nM | 2.64 µM | 0.27 µM | 4.47 µM | 0.868 µM | 4.98 µM |
| O=C1OC(O)C(Oc2c(Cl)cccc2Cl)=C1Cl (stereo not given) |  | 43.5 µM |  | 33.9 µM |  | 45.7 µM |  | 34.7 µM |  | 29.2 µM |  | 54.1 µM |  | 32.3 µM |  | 42.6 µM |  | 34.7 µM |  | 73.2 µM |
| CCC(CNc1cc(OC)cc2cccnc12)NC1CCCCC1 (stereo not given) | > 100 µM | > 100 µM | 17300 nM | 45.8 µM | 25.6 µM | 64.7 µM | 66 µM | > 100 µM | 16800 nM | 41 µM | 27600 nM | > 100 µM | 56800 nM | > 100 µM | 86000 nM | > 100 µM | 63.3 µM | > 100 µM | 40.1 µM | > 100 µM |
| CN(C)c1nc(=Nc2cccc(Cl)c2)ss1 |  | > 100 µM |  | 56.5 µM |  | 25.8 µM |  | > 100 µM |  | 46.3 µM |  | 43.7 µM |  | 32.8 µM |  | > 100 µM |  | 76.4 µM |  | 56.5 µM |
| O=C1C=CC(=O)c2cc(Sc3ccccc3)c(=O)ccc21 |  | 54.9 µM |  | 27.6 µM |  | 35.1 µM |  | 47.3 µM |  | 47.6 µM |  | 34.4 µM |  | 37 µM |  | 42.9 µM |  | 39.5 µM |  | 33.2 µM |
| CCOC(=N)/C(=C1\OC(N)=C(c2ccc(Cl)cc2)C1=O)c1ccc(Cl)cc1 |  | > 100 µM |  | 55.8 µM |  | 31.7 µM |  | 43.6 µM |  | 46 µM |  | 34.4 µM |  | 30.2 µM |  | 49.9 µM |  | 66.7 µM |  | 32.7 µM |
| CN(C)C(=O)OC(Cn1cncn1)(Cn1cncn1)c1ccc(Cl)cc1Cl |  | > 100 µM |  | > 100 µM |  | > 100 µM |  | > 100 µM |  | > 100 µM |  | > 100 µM |  | > 100 µM |  | > 100 µM |  | > 100 µM |  | > 100 µM |
| O=C(CNc1ccccc1[N+](=O)[O-])Nn1c(-c2ccccc2)nc2ccccc2c1=O |  | > 100 µM |  | 46.5 µM |  | 59.2 µM |  | 42.8 µM |  | 45.1 µM |  | > 10 µM |  | 44.5 µM |  | 93 µM |  | > 100 µM |  | 36.2 µM |
| OCC(O)c1nc2ccc3[nH]ncc3c2c2c1CCCC2 (stereo not given) | 2.23 µM | > 50 µM | 1620 nM | > 50 µM | 1.22 µM | 3.76 µM | 1.53 µM | > 50 µM | 1490 nM | 5.43 µM | 1620 nM | > 50 µM | 957 nM | 2.4 µM | 971 nM | 2.83 µM | 1.67 µM | > 50 µM | 1.3 µM | 4.67 µM |
